Measurements: patent US6025365A, “Chelerythrine and radiation combined tumor therapy” (Arch Development Corp., priority 1997, dated 2000)

Experiments:
WEHI-231 JM cells [1] = experiment: Viability by PI staining and FACS, WEHI-231 JM; assay type: cell-based, murine; details: Mus musculus, WEHI231, 24 hours
Procedure: (§1) FIG. 11B. WEHI-231 JM and OE cells are equally sensitive to inhibition of sphingosine kinase and exogenous ceramide. Cells were treated with increasing concentrations of C2-ceramide or DL-threo-dihydrosphingosine--apotent inhibitor of sphingosine kinase. Viability was assayed using PI staining and FACS analysis 24 hours after treatment.
(§2) For viability staining, 2.5-3.5×10^5 cells were treated with varying concentrations of C2-ceramide, irradiation, or both.
(§3) In order to address the question of whether the resistance of the OE subline was due, in part, to alterations in ceramide metabolites or targets, three studies were performed. […] Both cell lines were equally susceptible to the effects of sphingosine kinase inhibition and the resulting […] in ceramide. […] Thus the radioresistance can be attributed to the lack of sphingomyelinase activation and the subsequent decreased ceramide production following irradiation.

WEHI-231 OE cells [2] = experiment: Viability by PI staining and FACS, WEHI-231 OE; assay type: cell-based, murine; details: Mus musculus, WEHI231, 24 hours
Procedure: as §1, §2, §3

WEHI-231 OE cells [3] = experiment: Resistance of selected WEHI-231 OE variants to n-oleoylethanolamine; assay type: cell-based, murine; details: 75 μM n-oleoylethanolamine
Procedure: WEHI-231 JM cells (1×10^7) were treated with two successive treatments of 100 μM and 125 μM N-oleoylethanolamine (Matreya), a potent inhibitor of ceramidase (Coroneos et al., 1995; Ambrosini et al., 1994). Cells were grown in media containing n-oleoylethanolamine for 96 hours. Serial dilutions isolated individual resistant cells and were expanded after each selection. Every two weeks cells were re-selected with 125 μM n-oleoethanolamine.

WEHI-231 JM cells [4] = experiment: Intracellular ceramide accumulation in WEHI-231 JM cells; assay type: cell-based, murine; details: within 24 hours
Procedure: Quantitation of ceramide by diacylglycerol kinase was similar to that described by Dressler and Kolesnick (1990). After irradiation, lipids were extracted and resuspended by bath sonication in 20 μl of 7.5% n-octyl-β-D-glucopyranoside, 5 mM cardiolipin, 1 mM DETAPAC. Seventy μl of a reaction mix was added to give a final concentration of 0.05M imidazole/HCl pH 6.6, 0.05M NaCl, 12.5 mM MgCl2, 1 mM EGTA and DAG kinase at a concentration of 0.7 U/ml. The reaction was started by the addition of 10 μl of [γ-^32 P]ATP (1.0 μCi/tube) in 5 mM ATP and incubated at room temperature for 30 min and stopped by the extraction of lipids with 450 μl of CHCl3 :CH3 OH (1:2) and 20 μl of 1% HClO4. The monophase was mixed and after 10 min., 150 μl CHCl3 and 150 μl of 1% HClO4 were added and the tubes vortexed and centrifuged at 5000 g for 5 min. The lower organic phase was washed twice with 1% HClO4 and then dried in a Speed Vac Apparatus. The phosphorylation products, ceramide-1-phosphate and phosphatidic acid (fom DAG) were resolved on a 10 cm×10 cm LH P-K TLC plate (Whatman). Data was calculated as pmoles of ceramide/10^6 cells by scintillation counting. In Example 6, data (mean +/- SD) represent at least 4 independent studies in which *p<002 compared with unirradiated controls. […]

HL-60 cells = details: literature reports; cited from earlier work
WEHI-231 cells [5] = details: Chmura et al., 1996a; cited from earlier work
cyclic-AMP kinase (PKA) = details: cited from earlier work
WEHI-231 cells [6] = experiment: Apoptosis / cell death of WEHI-231 (propidium iodide FACS, gel electrophoresis, DAPI); assay type: cell-based, murine; details: chelerythrine 10 μM or calphostin C 250 nM
Procedure: Cells undergoing apoptosis also shrink in size.
Cells, 5×10^5, were centrifuged at 1000 rpm and resuspended in approximately 100 μl cell culture media. The cell suspension was then mixed with 100 μl of DAPI (4',6-iamidino-2-phenylindole, Sigma D9542, 1 μg/ml in PBT (PBS+1% Triton X-100)). One drop of this mixture was placed on a microslide with a coverslip. The cells were viewed by fluorescence microscopy using an Olympus BX-40 microscope with a 100 Watt Mercury lamp, a 16 or 40 X Fluorite objective, N.A. 0.75, (Leco #1-UB527) and a UV filter cube (ex 330-385 nm, em 420 nm, wide band pass, Leco #U-M536). Images were photographed using an Optronics cooled low-light video camera (Leco #DEI-470TB) to which was attached a 2X coupler (Leco #HR200-CMT). The image was saved to a digital file at 72 dpi.
DNA degradation was assessed as previously described (Gottschalk et al., 1993; 1994). Briefly, following treatment in 100 mm plates or 24 well plates, cells were collected and lysed in 0.5 ml lysis buffer (0.6% SDS+10 mM EDTA, pH 7.0). NaCl was added to a final concentration of 1M, mixed by inversion, incubated for 12 hours at 4° C. and then spun at 14,000 g for 30 minutes. Samples were treated with chloroform (1:1) and precipitated in ethanol prior to electrophoresis in a 3% agarose gel and visualized with ethidium bromide.

WEHI-231 cells [7] = experiment: Sphingomyelin mass by lipid extraction / TLC; assay type: cell-based, murine; details: 250 nM calphostin C, 2 hours
Procedure: (§4) FIG. 7A. Inhibition of PKC causes an increase in ceramide production through the activation of a neutral sphingomyelinase and decreases in sphingomyelin levels. Ceramide production was quantitated using the DAG kinase assay for WEHI-231 JM cells and total lipid extraction was used to assay sphingomyelin mass. Following addition of 10 μM chelerythrine, cells were lysed at the appropriate time points as described herein. Each data point represents the average percentage change in ceramide or sphingomyelin generation from baseline derived from at least 8 independent studies for all time points with the exception of those marked with * (n=4). Standard deviations depicted by error bars.
(§5) FIG. 7B. […] Ceramide production and sphingomyelin mass was quantitated identical to that for chelerythrine. Cells were lysed 2 hours following the addition of 250 nM calphostin C. […]
Cells were prelabeled with [^3 H] palmitate (10 μCi/ml) for 24 hours to isotopic equilibrium in 15 ml glass tubes to minimize changes in cellular ceramide and sphingomyelin due to handling and changing of media (Borchardt et al., 1994). […] Autoradiographs were quantitated using an Epson 1200 c 30 bit scanner and NIH Image software (public domain program developed at the NIH and available from the Internet via FTP from zippy.nimh.nih.gov). […]

protein kinase C (PKC) = details: cited from earlier work
WEHI-231 cells [8] = experiment: Ceramide production by DAG kinase assay; assay type: cell-based, murine; details: 250 nM calphostin C, 2 hours
Procedure: as §4, §5
Quantitation of ceramide by diacylglycerol kinase was similar to that described by Dressler and Kolesnick (1990). […] Data was calculated as pmoles of ceramide/10^6 cells by scintillation counting. […]
In order to test whether PKC inhibition alters ceramide production, the DAG kinase assay was used to quantify intracellular ceramide following chelerythrine and calphostin C treatment (Dressler and Kolesnick, 1990; Preiss et al., 1986). […]

CCCCCCCCCCCCCCC[C@H](O)[C@@H](N)CO (relative stereo) [DL-threo-dihydrosphingosine]
IC50 (WEHI-231 JM cells [1]): 3000 nM
IC50 (WEHI-231 OE cells [2]): 3000 nM

CCCCCCCC/C=C\CCCCCCCC(=O)NCCO [N-oleoylethanolamine]
resistance to apoptosis vs parental line (WEHI-231 OE cells [3]): 3 fold
intracellular accumulation of ceramide (WEHI-231 JM cells [4]): rose within 24 hours in a dose dependent manner

CN[C@@H]1C[C@H]2O[C@@](C)([C@@H]1OC)n1c3ccccc3c3c4c(c5c6ccccc6n2c5c31)C(=O)NC4 [staurosporine]
apoptosis in HL-60 cells (HL-60 cells): both to antagonize (Cotter et al., 1992) and to initiate apoptosis in HL-60 cells

Calphostin C
interaction with exogenous ceramide analogs in inducing apoptosis (WEHI-231 cells [5]): act in synergy with exogenous ceramide analogs to induce apoptosis
inhibition of PKA (cyclic-AMP kinase (PKA); at concentrations used for the inventors' studies): do not appear to inhibit other kinases
IC50 (cyclic-AMP kinase (PKA)): 50000 nM
cell death (WEHI-231 cells [6]; 24 hours): greater than 90%
DNA laddering and nuclear condensation (WEHI-231 cells [6]): DNA laddering and nuclear condensation
sphingomyelin levels (WEHI-231 cells [7]): decreased sphingomyelin levels
specificity at blocking PKC vs staurosporin and H7 (protein kinase C (PKC)): at least 30 fold
ceramide production (WEHI-231 cells [8]): induced cerarnide production
